Values after ≈ are worked out from the molar mass of the structure shown.
Experiments:
[1] = test system: CCRF-CEM; experiment: Activity against HIV-1 induced cytopathicity in CEM cells; type: functional; conditions: Homo sapiens
[2] = test system: CCRF-CEM; experiment: Activity against HIV-2 induced cytopathicity in CEM cells; type: functional; conditions: Homo sapiens
[3] = test system: E6SM; experiment: Activity against HSV-1(KOS) virus induced cytopathicity in E6SM cells; type: functional; conditions: Homo sapiens
[4] = test system: E6SM; experiment: Activity against HSV-2(G) virus induced cytopathicity in E6SM cells; type: functional; conditions: Homo sapiens
[5] = test system: E6SM; experiment: Activity against VSV virus induced cytopathicity in E6SM cells; type: functional; conditions: Homo sapiens
[6] = test system: HEL; experiment: Activity against CMV (AD-169) induced cytopathicity in HEL cells; type: functional; conditions: Homo sapiens
[7] = test system: HEL; experiment: Activity against CMV (Davis) induced cytopathicity in HEL cells; type: functional; conditions: Homo sapiens
[8] = test system: HEL; experiment: Activity against VZV (OKA) induced cytopathicity in HEL cells; type: functional; conditions: Homo sapiens
[9] = test system: HEL; experiment: Activity against VZV (YS) induced cytopathicity in HEL cells; type: functional; conditions: Homo sapiens
[10] = test system: Respiratory syncytial virus; experiment: Activity against RSV (strain Long) virus induced cytopathicity in HeLa cells; type: functional; conditions: human respiratory syncytial virus
[11] = test system: HeLa; experiment: Activity against VSV virus induced cytopathicity in HeLa cells; type: functional; conditions: Homo sapiens
[12] = test system: HeLa; experiment: Activity against coxsackie B4 virus induced cytopathicity in HeLa cells; type: functional; conditions: Homo sapiens
[13] = test system: HeLa; experiment: Activity against parainfluenza-3 virus induced cytopathicity in HeLa cells; type: functional; conditions: Homo sapiens
[14] = test system: L1210; experiment: Inhibitory concentration on murine leukemia L1210/0 cells; type: functional, cell-based; conditions: Mus musculus
[15] = organism: Homo sapiens; experiment: Inhibitory concentration on human T-lymphocyte Molt4 (clone 8) cells; type: functional, cell-based; conditions: MOLT-4
[16] = test system: Vero; experiment: Activity against reovirus-1 induced cytopathicity in Vero cells; type: functional; conditions: Chlorocebus sabaeus
[17] = test system: Vero; experiment: Activity against semliki forest virus induced cytopathicity in Vero cells; type: functional; conditions: Chlorocebus sabaeus
[18] = test system: Vero; experiment: Activity against sindbis virus induced cytopathicity in Vero cells; type: functional; conditions: Chlorocebus sabaeus
[19] = test system: E6SM; experiment: Activity against VV virus induced cytopathicity in E6SM cells; type: functional; conditions: Homo sapiens
[20] = organism: Homo sapiens; experiment: Inhibitory concentration on human T-lymphocyte CEM/0 cells; type: functional, cell-based; conditions: CCRF-CEM
[21] = test system: HeLa; experiment: cells; conditions: Homo sapiens
[22] = test system: MDCK; experiment: cells; conditions: Canis lupus familiaris
[23] = test system: MDCK; experiment: cells; conditions: Canis lupus familiaris; remark: listed apart in the source
[24] = test system: Vero; experiment: cells; conditions: Chlorocebus sabaeus
[25] = test system: Vero; experiment: cells; conditions: Chlorocebus sabaeus; remark: listed apart in the source
[26] = molecular target: Adenosylhomocysteinase (Mus musculus, UniProt P50247); experiment: Binding affinity against L929 cells AdoHcy hydrolase activity; type: cell-based
[27] = organism: Homo sapiens; experiment: Inhibitory concentration on human T-lymphocyte Molt(clone 8) cells; type: functional, cell-based
[28] = test system: MDCK; experiment: Activity against influenza B virus induced cytopathicity in MDCK cells; type: functional; conditions: Canis lupus familiaris
[29] = test system: MDCK; experiment: Activity against influenza A virus induced cytopathicity in MDCK cells; type: functional; conditions: Canis lupus familiaris

Chain of Adenosylhomocysteinase (P50247 whole entry): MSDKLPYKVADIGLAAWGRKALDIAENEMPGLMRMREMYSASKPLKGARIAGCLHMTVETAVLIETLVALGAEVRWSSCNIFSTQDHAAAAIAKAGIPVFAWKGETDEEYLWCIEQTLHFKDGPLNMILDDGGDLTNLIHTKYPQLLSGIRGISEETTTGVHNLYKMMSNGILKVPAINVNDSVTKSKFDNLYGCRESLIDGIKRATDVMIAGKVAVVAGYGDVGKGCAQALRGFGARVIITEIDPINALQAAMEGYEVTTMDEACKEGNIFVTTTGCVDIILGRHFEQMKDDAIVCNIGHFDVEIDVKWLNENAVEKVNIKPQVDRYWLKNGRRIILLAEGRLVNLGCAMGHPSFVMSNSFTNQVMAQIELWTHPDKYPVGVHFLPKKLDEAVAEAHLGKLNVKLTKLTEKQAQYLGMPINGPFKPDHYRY

For `Nc1ncnc2c1ncn2[C@H]1C[C@@H](O)[C@H](O)[C@@H]1O`, the MIC50 [1] was over 4 µg/mL, the MIC50 [2] was over 4 µg/mL and the MIC50 [3] was over 400 µg/mL. For the same compound, the MIC50 [4] was over 400 µg/mL, the MIC50 [5] was 2 µg/mL (≈ 7.96 µM) and the MIC50 [6] was 5 µg/mL (≈ 19.9 µM). The MIC50 [7] was 3 µg/mL (≈ 11.9 µM), the MIC50 [8] was over 50 µg/mL and the MIC50 [9] was over 50 µg/mL. It also gave an MIC50 [10] of over 200 µg/mL, an MIC50 [11] of 2 µg/mL (≈ 7.96 µM) and an MIC50 [12] of over 400 µg/mL. The MIC50 [13] was 0.2 µg/mL (≈ 0.796 µM), the IC50 [14] was 5700 nM and the IC50 [15] was 4650 nM. The MIC50 [16] was 7 µg/mL (≈ 27.9 µM), the MIC50 [17] was over 400 µg/mL and the MIC50 [18] was over 400 µg/mL. The MIC50 [19] was 0.7 µg/mL (≈ 2.79 µM), the IC50 [20] was 3990 nM and the MIC50 [21] was over 400 µg/mL. It also gave an MIC50 [22] of over 200 µg/mL, an MIC50 [23] of over 200 µg/mL and an MIC50 [24] of 30 µg/mL (≈ 119 µM). It also gave an MIC50 [25] of 50 µg/mL (≈ 199 µM).

Work on `Nc1ncnc2c1ncn2[C@@H]1C=C(CO)[C@@H](O)[C@H]1O` [NEOPLANOCIN A] yielded an MIC50 [3] of 70 µg/mL (≈ 266 µM), an MIC50 [4] of over 100 µg/mL and an MIC50 [5] of 2 µg/mL (≈ 7.6 µM). It also gave an MIC50 [6] of 0.2 µg/mL (≈ 0.76 µM), an MIC50 [7] of 0.2 µg/mL (≈ 0.76 µM) and an MIC50 [8] of 6 µg/mL (≈ 22.8 µM). For the same compound, the MIC50 [9] was 3.5 µg/mL (≈ 13.3 µM), the MIC50 [10] was over 1.2 µg/mL and the MIC50 [11] was 2 µg/mL (≈ 7.6 µM). For the same compound, the MIC50 [12] was over 10 µg/mL, the MIC50 [13] was 0.2 µg/mL (≈ 0.76 µM) and the Ki [26] was 3 nM. For the same compound, the MIC50 [16] was 0.7 µg/mL (≈ 2.66 µM), the MIC50 [17] was over 10 µg/mL and the MIC50 [18] was over 10 µg/mL. For the same compound, the MIC50 [19] was 0.2 µg/mL (≈ 0.76 µM), the MIC50 [21] was over 10 µg/mL and the MIC50 [22] was 1.2 µg/mL (≈ 4.56 µM). It also gave an MIC50 [23] of over 2.8 µg/mL, an MIC50 [24] of 0.4 µg/mL (≈ 1.52 µM) and an MIC50 [25] of 0.4 µg/mL (≈ 1.52 µM).

`Nc1ncnc2c1ncn2C1CC(O)C(O)C1O` (racemic) showed an IC50 [14] of 630 nM, a Ki [26] of 11.1 nM and an IC50 [27] of 580 nM. The IC50 [20] was 680 nM.

`Nc1ncnc2c1ncn2[C@@H]1C[C@H](O)[C@@H](O)[C@H]1O` [NORARISTEROMYCIN] gave an MIC50 [1] of over 0.16 µg/mL, an MIC50 [2] of over 0.16 µg/mL and an MIC50 [3] of over 400 µg/mL. For the same compound, the MIC50 [4] was over 400 µg/mL, the MIC50 [5] was 0.1 µg/mL (≈ 0.398 µM) and the MIC50 [6] was 0.01 µg/mL (≈ 0.0398 µM). The MIC50 [7] was 0.03 µg/mL (≈ 0.119 µM), the MIC50 [8] was over 50 µg/mL and the MIC50 [9] was over 50 µg/mL. The MIC50 [10] was over 200 µg/mL, the MIC50 [11] was 0.2 µg/mL (≈ 0.796 µM) and the MIC50 [12] was over 400 µg/mL. It also gave an MIC50 [13] of 0.07 µg/mL (≈ 0.279 µM), an IC50 [14] of 500 nM and an MIC50 [28] of over 100 µg/mL. The IC50 [15] was 390 nM, the MIC50 [16] was 0.7 µg/mL (≈ 2.79 µM) and the MIC50 [17] was over 400 µg/mL. It also gave an MIC50 [18] of over 400 µg/mL, an MIC50 [19] of 0.04 µg/mL (≈ 0.159 µM) and an IC50 [20] of 420 nM. It also gave an MIC50 [29] of over 100 µg/mL, an MIC50 [21] of over 400 µg/mL and an MIC50 [24] of 6 µg/mL (≈ 23.9 µM). It also gave an MIC50 [25] of 8 µg/mL (≈ 31.8 µM).

From ChEMBL document CHEMBL1127333, “Antiviral enantiomeric preference for 5'-noraristeromycin” (J Med Chem, 1994)
